Our source for the ki/Ki values is ChEMBL document CHEMBL1126313, “Cysteine protease inhibition by azapeptide esters” (J Med Chem, 1992).

This assay has as its target T1, Papain (Carica papaya) (UniProt P00784).
T1 sequence (whole entry): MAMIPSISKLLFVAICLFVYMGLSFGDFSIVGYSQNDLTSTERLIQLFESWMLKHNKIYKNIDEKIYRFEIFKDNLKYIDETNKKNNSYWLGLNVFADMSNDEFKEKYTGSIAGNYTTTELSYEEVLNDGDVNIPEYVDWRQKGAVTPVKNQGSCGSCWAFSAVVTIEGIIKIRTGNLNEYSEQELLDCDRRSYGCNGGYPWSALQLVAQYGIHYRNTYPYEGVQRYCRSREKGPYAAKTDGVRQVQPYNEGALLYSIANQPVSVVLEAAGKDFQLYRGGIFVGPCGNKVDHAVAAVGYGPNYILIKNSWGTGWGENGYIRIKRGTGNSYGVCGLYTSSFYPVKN
Put plainly: The compound was tested for Rate of Inhibition of Papain.

The molecule `COC(=O)NNC(=O)[C@H](Cc1ccccc1)NC(C)=O` registered a ki/Ki of 13 M⁻¹ s⁻¹.
The figure for `CC(=O)N[C@@H](Cc1ccccc1)C(=O)NN(C)C(=O)OCC(C)C` is 0.02 M⁻¹ s⁻¹; for `CC(=O)N[C@@H](Cc1ccccc1)C(=O)NNC(=O)OCC(C)C` it is 18 M⁻¹ s⁻¹; for `CC(=O)N[C@@H](Cc1ccccc1)C(=O)NNC(=O)Oc1ccccc1` it is over 11000 M⁻¹ s⁻¹.
